Data: ChEMBL document CHEMBL1240438, “Identification of potent virtual leads to design novel indoleamine 2,3-dioxygenase inhibitors: pharmacophore modeling and molecular docking studies” (Eur J Med Chem, 2010)

The compounds below were run against Indoleamine 2,3-dioxygenase 1 (Homo sapiens, UniProt P14902) (assay: Inhibition of 2,3 dioxygenase).
Indoleamine 2,3-dioxygenase 1, sequence (P14902 whole entry): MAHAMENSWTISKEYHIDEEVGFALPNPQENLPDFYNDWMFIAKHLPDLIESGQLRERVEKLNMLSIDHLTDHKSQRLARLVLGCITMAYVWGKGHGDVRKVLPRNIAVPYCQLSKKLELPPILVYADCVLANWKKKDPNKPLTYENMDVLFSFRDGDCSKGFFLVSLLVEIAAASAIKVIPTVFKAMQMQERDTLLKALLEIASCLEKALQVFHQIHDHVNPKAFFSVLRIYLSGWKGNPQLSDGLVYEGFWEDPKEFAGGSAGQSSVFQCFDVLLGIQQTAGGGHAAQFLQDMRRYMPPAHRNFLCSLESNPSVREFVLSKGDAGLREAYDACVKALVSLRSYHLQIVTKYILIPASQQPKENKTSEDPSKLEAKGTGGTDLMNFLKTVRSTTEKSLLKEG

| IC50 | Structure (SMILES) |
| --- | --- |
| 4950 nM | CC1(C)OC2=C(C(=O)c3ccccc3C2=O)C2OC21 (centres undefined) |
| 2000 nM | CC1(C)C=CC2=C(O1)C(=O)c1cc(O)ccc1C2=O |
| 130 nM | CCCCNC1C2=C(OC(C)(C)C1O)C(=O)c1ccccc1C2=O (centres undefined) |
| 880 nM | CC1=C(SCC(NC(=O)CCC(N)C(=O)O)C(=O)NCC(=O)O)C(=O)c2c(O)cccc2C1=O (centres undefined) |
